Test results: patent US20080146987A1, “TREATMENT OF A SKIN CONDITION USING A PIPERINE-BASED COMPOSITION IN CONJUNCTION WITH IRRADIATION” (OREGON HEALTH & SCIENCE UNIVERSITY, priority 2006, published 2008)

System: HRA.HRII-c/+/Skh hairless pigmented mice
Assay: visual pigmentation score after topical compounds with or without UVB, 13-week protocols
Type: in vivo
Settings: HRA/Skh-II mice, four or more weeks
Protocol: Male and female inbred HRA.HRII-c/+/Skh hairless pigmented mice, age-matched (8-16 weeks old), were used in the following in vivo experiments for evaluation of pigmentation induced by piperine and/or UVR.
In one experiment, the compounds used included piperine, THP, CHP, and RCHP, each prepared in DMSO at a 50 mg/ml concentration, and applied to the backs of mice (n=4) twice daily on weekdays for 13 weeks, as shown in FIG. 3. As shown, Group A received treatment with compounds only from week 1-13. Group B was treated with compound from week 1-13, with additional UVB irradiation from weeks 5-13. Group F received UVB alone (no topical treatment) for 9 weeks, corresponding to weeks 5-13. Groups C, D and E were treated as Group B from weeks 1-7. All treatments was suspended for 3 weeks (8-10) and re-started as topical treatment with compounds only (Group C), UVB only (Group D), or topical treatment with UVB (Group E) from weeks 11-13.
Pigmentation was assessed visually by an investigator blinded to the treatment that the animals had received using the following scoring system: 0—no pigmentation; 1—first signs of pigmentation (spots); 2—light brown; 3—medium brown; 4—dark brown; 5—black. Scores obtained at the end of each week (Friday) are shown in FIG. 4 (piperine noted as PIP). […]

Structure (SMILES): O=C(CCCCc1ccc2c(c1)OCO2)NC1CCCCC1 [RCHP, 5-(3,4-methylenedioxyphenyl)-2,4-pentanoylcyclohexylamine]
- skin pigmentation in vivo after continuous topical application: stimulate the development of even skin pigmentation
